Experiments:
[1] = tested on: HCV genotype 3; assay: activity against genotype 3 in vitro; design: species or system hepatitis C virus
[2] = PK of single agents vs fixed dose combinations, single dose in healthy volunteers (Example 13); format: in vivo, human
Procedure: SMV (100 mg), ODV (50 mg), and Compound (III) (800 mg) were administered as three different formulations or together as single doses in vivo to healthy volunteers. The arms of the study included: • Arm 1 (Reference Arm): Single oral doses of single agents, one SMV 100-mg capsule, one ODV 50-mg tablet as granule layered solid dispersion with copovidone and poloxamers, and two Compound (III) 400-mg tablets, administered together. • Arm 2: Single oral dose of fixed dose combination (FDC02): SMV 100 mg+ODV 50 mg as a spray dried solid dispersion with HPMC-AS L in a ratio ODV/HPMC-AS L 1/1 w/w+Compound (III) 800 mg • Arm 3: Single oral dose of fixed dose combination (FDC04): SMV 100 mg+ODV 50 mg as a spray dried solid dispersion with HPMC-AS L in a ratio ODV/HPMC-AS L 1/3 w/w+Compound (III) 800 mg • Arm 4: Single oral dose of fixed dose combination (FDC01): SMV 100 mg+ODV 50 mg as a spray dried solid dispersion with copovidone and poloxamers+Compound (III) 800 mg
PK parameters, including Cmax, tmax, AUClast, and AUC∞ were measured for Compound (III), ODV, SMV, and metabolites Compound A-1 and Compound A-3 for each Arm of the study. Arms that included fixed dose combinations (FDC) (Arm 2, Arm 3, and Arm 4) were then compared to a single oral dose (Arm 1, the reference Arm). Table 9, Table 10, Table 11, Table 12 and Table 13 display relevant PK parameters and FIG. 9, FIG. 10, FIG. 11, FIG. 12, and FIG. 13 depict the plasma concentration over time of SMV, ODV, Compound A-1, and Compound A-3 for each Arm of the study.

[3] = molecular target: P-gp (Homo sapiens, UniProt P08183); settings: cited from earlier work
[4] = tested on: CYP; assay: CYP inhibition potential; settings: any CYP
[5] = molecular target: MRP2 (Homo sapiens, UniProt Q92887); settings: cited from earlier work
[6] = Phase-1 drug-drug interaction study of Odalasvir, Simeprevir and Compound (III) in healthy volunteers; format: in vivo, human
From the text: The following daily doses were employed:

[7] = molecular target: T1, OATP1B3 (Homo sapiens, UniProt Q9NPD5); settings: cited from earlier work
T1 sequence (Q9NPD5 1-702): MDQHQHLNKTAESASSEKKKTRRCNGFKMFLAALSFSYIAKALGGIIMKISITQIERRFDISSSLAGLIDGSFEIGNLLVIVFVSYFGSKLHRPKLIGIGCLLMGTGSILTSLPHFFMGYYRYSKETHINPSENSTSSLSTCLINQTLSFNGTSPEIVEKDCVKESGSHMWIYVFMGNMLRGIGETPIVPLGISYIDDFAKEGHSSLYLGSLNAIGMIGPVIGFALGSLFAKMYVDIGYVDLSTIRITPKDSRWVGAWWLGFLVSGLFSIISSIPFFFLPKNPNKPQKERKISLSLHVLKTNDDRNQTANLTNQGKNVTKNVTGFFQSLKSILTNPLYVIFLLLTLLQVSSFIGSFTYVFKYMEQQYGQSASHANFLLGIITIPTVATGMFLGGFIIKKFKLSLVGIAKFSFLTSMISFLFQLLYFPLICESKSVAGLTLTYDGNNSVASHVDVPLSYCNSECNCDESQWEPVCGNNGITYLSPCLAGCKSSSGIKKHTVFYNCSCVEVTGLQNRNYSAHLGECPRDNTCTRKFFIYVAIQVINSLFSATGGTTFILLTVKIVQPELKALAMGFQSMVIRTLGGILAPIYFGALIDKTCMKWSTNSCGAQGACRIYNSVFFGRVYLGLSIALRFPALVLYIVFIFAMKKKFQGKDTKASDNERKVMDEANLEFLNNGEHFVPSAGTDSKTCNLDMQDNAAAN

[8] = molecular target: MRP3 (Homo sapiens, UniProt O15438); settings: cited from earlier work
[9] = Phase 2a open-label combination study, pharmacokinetics; format: in vivo, human
Procedure: A randomized, Phase 2a, open-label study was carried out to evaluate the safety, pharmacokinetics and efficacy of the combination of Compound (III), Odalasvir and Simeprevir in Genotype 1 treatment-naïve subjects with chronic hepatitis C. Other treatment-naïve subjects included Genotype 2, 3, 4, 5 and 6.
The aim of the study was to determine the efficacy, pharmacokinetics (PK), and safety of Compound (II)+Odalasvir±SMV in HCV-infected subjects.
This was an open-label study evaluating various dosing regimens of Compound (III)+Odalasvir±SMV for 6-8 weeks in treatment-nave HCV-infected subjects with varying clinical characteristics (e.g., GT 1 or 3, presence/absence of compensated Child Pugh A cirrhosis). Efficacy, PK and safety evaluations were conducted during and through 24 weeks post dosing. Up to 15 cohorts were enrolled; data was generated from cohorts that have completed dosing.

Chain of MRP3 (O15438 whole entry): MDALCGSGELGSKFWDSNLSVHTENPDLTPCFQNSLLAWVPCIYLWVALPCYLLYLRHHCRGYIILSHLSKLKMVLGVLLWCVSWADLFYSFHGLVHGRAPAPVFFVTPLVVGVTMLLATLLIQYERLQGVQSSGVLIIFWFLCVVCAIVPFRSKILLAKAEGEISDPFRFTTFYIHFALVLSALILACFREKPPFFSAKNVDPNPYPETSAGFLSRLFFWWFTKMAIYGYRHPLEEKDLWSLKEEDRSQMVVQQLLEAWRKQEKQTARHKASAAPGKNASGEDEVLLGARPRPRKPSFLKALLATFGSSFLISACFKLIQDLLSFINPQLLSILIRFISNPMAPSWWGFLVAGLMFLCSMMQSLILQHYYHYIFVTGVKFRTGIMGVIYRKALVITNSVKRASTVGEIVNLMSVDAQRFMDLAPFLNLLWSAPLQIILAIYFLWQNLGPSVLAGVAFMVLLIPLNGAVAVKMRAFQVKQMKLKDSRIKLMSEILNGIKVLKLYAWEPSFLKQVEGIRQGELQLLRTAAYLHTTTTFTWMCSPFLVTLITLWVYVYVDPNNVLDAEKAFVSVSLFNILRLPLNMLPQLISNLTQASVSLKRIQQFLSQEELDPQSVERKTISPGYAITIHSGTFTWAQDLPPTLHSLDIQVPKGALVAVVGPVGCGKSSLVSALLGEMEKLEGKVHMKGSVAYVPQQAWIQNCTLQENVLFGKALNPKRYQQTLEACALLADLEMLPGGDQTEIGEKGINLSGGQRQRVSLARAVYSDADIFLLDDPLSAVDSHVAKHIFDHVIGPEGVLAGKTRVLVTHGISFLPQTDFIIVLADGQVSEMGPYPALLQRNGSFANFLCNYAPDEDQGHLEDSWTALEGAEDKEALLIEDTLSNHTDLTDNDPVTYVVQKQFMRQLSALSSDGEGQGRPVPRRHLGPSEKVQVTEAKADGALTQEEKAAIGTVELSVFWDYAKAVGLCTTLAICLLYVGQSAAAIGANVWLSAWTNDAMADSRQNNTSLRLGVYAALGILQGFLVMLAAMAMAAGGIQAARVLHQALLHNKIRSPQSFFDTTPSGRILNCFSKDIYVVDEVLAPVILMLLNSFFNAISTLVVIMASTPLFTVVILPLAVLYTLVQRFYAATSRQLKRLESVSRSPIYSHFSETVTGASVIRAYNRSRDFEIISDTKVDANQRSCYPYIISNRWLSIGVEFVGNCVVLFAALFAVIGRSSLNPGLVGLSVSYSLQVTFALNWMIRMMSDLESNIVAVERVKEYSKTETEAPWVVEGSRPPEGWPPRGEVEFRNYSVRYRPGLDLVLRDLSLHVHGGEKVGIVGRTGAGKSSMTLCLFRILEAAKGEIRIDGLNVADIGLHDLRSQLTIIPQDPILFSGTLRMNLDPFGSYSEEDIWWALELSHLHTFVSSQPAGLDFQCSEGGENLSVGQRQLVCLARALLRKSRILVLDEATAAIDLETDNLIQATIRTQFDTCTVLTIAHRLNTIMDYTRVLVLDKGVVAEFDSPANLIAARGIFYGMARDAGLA
Chain of MRP2 (Q92887 whole entry): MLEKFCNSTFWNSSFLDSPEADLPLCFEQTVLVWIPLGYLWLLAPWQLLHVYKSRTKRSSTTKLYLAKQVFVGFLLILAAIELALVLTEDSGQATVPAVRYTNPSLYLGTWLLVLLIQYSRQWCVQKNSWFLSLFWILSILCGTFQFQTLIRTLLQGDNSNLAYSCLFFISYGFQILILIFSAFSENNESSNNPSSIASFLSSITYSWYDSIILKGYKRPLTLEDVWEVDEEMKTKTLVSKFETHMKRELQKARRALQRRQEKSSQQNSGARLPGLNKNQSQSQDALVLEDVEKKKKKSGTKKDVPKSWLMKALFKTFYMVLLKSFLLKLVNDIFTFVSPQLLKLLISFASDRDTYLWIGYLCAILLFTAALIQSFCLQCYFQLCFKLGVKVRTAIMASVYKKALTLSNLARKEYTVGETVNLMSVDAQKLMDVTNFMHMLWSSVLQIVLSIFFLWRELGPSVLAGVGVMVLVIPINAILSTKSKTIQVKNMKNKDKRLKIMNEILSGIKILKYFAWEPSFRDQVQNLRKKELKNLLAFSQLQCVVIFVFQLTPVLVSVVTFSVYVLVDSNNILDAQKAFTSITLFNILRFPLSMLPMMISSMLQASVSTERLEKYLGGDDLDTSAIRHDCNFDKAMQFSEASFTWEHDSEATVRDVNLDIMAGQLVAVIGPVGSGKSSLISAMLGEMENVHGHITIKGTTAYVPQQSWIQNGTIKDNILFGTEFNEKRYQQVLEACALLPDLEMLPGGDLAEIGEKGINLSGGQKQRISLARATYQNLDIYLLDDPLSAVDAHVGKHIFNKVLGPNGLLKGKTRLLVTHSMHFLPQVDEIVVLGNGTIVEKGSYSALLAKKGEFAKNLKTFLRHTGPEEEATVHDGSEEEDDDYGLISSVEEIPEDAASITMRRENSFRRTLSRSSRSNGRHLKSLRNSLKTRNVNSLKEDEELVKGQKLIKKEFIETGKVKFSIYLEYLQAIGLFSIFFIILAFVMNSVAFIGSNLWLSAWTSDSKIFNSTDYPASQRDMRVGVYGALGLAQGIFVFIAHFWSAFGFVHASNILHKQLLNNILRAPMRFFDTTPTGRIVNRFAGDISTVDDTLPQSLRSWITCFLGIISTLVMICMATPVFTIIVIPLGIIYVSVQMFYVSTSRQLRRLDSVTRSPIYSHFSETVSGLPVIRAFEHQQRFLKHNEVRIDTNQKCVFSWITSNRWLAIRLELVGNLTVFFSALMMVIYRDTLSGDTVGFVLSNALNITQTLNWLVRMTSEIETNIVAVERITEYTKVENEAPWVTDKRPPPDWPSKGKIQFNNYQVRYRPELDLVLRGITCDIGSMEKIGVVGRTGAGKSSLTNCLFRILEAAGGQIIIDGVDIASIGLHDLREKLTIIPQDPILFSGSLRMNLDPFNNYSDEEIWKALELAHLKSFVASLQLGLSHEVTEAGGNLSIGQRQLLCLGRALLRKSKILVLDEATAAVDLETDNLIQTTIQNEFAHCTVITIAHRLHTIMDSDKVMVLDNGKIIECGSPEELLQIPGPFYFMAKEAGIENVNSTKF
Chain of P-gp (P08183 whole entry): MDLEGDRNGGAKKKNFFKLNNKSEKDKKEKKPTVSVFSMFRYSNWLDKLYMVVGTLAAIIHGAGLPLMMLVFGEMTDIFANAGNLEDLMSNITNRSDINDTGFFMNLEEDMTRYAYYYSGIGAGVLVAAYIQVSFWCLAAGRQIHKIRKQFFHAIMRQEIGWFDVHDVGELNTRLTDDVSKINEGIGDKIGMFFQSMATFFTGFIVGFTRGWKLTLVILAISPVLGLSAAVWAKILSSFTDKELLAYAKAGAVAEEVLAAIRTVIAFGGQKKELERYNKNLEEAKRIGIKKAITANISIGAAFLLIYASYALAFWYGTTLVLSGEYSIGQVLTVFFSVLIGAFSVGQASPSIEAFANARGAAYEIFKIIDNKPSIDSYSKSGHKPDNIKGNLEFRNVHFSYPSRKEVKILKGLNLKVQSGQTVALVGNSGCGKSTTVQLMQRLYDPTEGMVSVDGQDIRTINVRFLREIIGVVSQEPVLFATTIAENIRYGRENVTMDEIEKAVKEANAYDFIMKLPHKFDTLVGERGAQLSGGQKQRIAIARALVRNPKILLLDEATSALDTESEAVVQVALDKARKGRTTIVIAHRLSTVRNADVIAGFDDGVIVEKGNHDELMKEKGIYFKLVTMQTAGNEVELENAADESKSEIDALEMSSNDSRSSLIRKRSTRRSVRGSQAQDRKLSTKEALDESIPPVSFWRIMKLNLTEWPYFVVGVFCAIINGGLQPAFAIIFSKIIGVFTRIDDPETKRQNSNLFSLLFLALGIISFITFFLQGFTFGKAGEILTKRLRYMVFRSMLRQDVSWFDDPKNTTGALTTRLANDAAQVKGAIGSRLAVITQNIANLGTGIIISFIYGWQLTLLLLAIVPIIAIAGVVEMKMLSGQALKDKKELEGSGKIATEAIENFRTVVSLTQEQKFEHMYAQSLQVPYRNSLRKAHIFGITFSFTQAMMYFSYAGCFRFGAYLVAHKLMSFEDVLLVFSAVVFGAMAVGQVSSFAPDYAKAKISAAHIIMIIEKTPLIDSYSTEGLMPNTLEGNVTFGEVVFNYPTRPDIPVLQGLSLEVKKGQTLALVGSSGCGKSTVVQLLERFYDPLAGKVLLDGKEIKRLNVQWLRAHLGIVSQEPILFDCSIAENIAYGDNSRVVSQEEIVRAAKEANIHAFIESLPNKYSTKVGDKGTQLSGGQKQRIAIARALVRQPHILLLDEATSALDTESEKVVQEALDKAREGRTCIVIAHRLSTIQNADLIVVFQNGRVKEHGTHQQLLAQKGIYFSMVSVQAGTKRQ

For `COC(=O)N[C@H](C(=O)N1[C@H](c2nc3cc(-c4cc5ccc4CCc4ccc(c(-c6ccc7[nH]c([C@@H]8C[C@@H]9CCCC[C@@H]9N8C(=O)[C@@H](NC(=O)OC)C(C)C)nc7c6)c4)CC5)ccc3[nH]2)C[C@@H]2CCCC[C@@H]21)C(C)C` [Odalasvir, methyl [(2,)-1-[(2S,3aS,7aS)-2-[6-[11-[2-[(2S,3aS,7aS)-1-[(2S)-2-[(methoxycarbonyl)amino]-3-methylbutanoyl]octahydro-1H-indol-2-yl]-1H-benzimidazol-6-yl]tricyclo[8.2.2.2^4,7]hexadeca-1(12),4,6,10,13,15-hexaen-5-yl]-1H-benzimidazol-2-yl]octahydro-1H-indol-1-yl]-3-methyl-1-oxobutan-2-yl]carbamate], the “activity against genotype 3 in vitro” value [1] was “effective”, the t1/2term ([2]; Arm 1 (reference): single agents, mean ± SD) was 168.6 ± 21.7 h and the “Least Square Means Ratio, Cmax” value ([2]; Arm 2 (FDC02) vs reference) was 81.00%. For the same molecule, the “AUC∞” value ([2]; Arm 2: FDC02, mean ± SD) was 7040 ± 2130 ng·h/mL, the t1/2term ([2]; Arm 2: FDC02, mean ± SD) was 169.0 ± 24.5 h and the t1/2term ([2]; Arm 3: FDC04, mean ± SD) was 176.0 ± 29.5 h. For the same molecule, the Cmax ([2]; Arm 4: FDC01 (SMV 100 mg + ODV 50 mg spray dried with copovidone and poloxamers + Compound (III) 800 mg), mean ± SD) was 298 ± 81.7 ng/mL, the AUClast ([2]; Arm 4: FDC01, mean ± SD) was 11127 ± 3354 ng·h/mL and the t1/2term ([2]; Arm 4: FDC01, mean ± SD) was 167.8 ± 22.4 h. The “in vitro inhibition of P-gp” value [3] was “moderate inhibition”, the CYP inhibition potential [4] was “does not inhibit” and the “in vitro inhibition of MRP2” value [5] was “no inhibition”. The “effect of Compound (III) on SMV or ODV” value ([6]; DDI study results) was “no apparent effect”, the “increase of exposure caused by SMV” value ([6]; DDI study results) was 1.6 × and the “increase of exposure, effect of the three Compounds” value ([6]; DDI study results) was 1.5 ×. For the same molecule, the “increase of exposure on co-administration of Compounds I, II and III” value ([6]; human in vivo study (Example 1)) was 1.5 times, the “effect of Compound (III) on bioavailability of SMV or ODV” value ([6]; human, in vivo) was “does not alter” and the “increase of exposure of ODV by SMV” value ([6]; human, in vivo) was 1.6 fold. The “in vitro inhibition of OATP1B3” value [7] was “no inhibition”, the “in vitro inhibition of MRP3” value [8] was “no inhibition” and the “observed exposures in Cohort 1 / group (i)” value ([9]; Compound (III) 400 mg, ODV 50 mg QD, SMV 100 mg QD) was “higher than anticipated”. For the same molecule, the “decrease of ODV exposure on reducing ODV dosing from QD to QOD” value ([9]; in vivo) was “proportionally”.

Reference: patent US20180021360A1, “Combination Therapy Regimen For Treatment Of Selected HCV Genotypes” (JANSSEN PHARMACEUTICALS, INC., priority 2016, published 2018)
